Patent US20230295096A1, “PYRAZOLE CARBOXAMIDE COMPOUNDS FOR TREATMENT OF HBV” (ASSEMBLY BIOSCIENCES, INC., priority 2020, published 2023)
Where two headings read alike, the source gives them in different places.

Test system: HBV
Assay: Viral load production from HepAD38 cells, qPCR of the HBV core sequence in supernatant
Format: cell-based
Conditions: HepAD38 cells, 5 days, HBV DNA in supernatant by qPCR
Experimental: HepAD38 cells grown in a T-150 flask (Corning, cat#: 430825) with Growth Medium (DMEM/F12 (1:1) (Hyclone, cat#: SH30023.02), 1X Pen/Strep (Invitrogen, cat#: 15140-122), 10% FBS (Tissue Culture Biologics, cat#: 101), 250 µg/mL G418 (Alfa Aesar, cat#: J62671), 1 µg/mL Tetracycline (Teknova, cat#: T3320)) were detached with 0.25% trypsin-EDTA (Invitrogen, cat#: 25200-056). Tetracycline-free treatment medium (15 mL DMEM/F12 (1:1) 1× Pen/step, with 2% FBS, Tet-system approved (Clontech, cat#: 631106) were then added to mix, transferred into a 50 ml conical tube (Falcon, cat#: 21008-918,) and spun at 1300 rpm for 5 min. Pelleted cells were then re-suspended/washed with 50 mL of 1X DPBS (Invitrogen, cat#: 14190-136) 2 times and 50 mL treatment medium twice. HepAD38 cells were then re-suspended with 10 mL of treatment medium, syringed and counted. Wells of 96-well clear bottom TC plate (Corning, cat#: 3904,) were seeded at 50.000 cells/well in 180 µL of treatment medium, and 20 µL of either 10% DMSO (Sigma, cat#: D4540) as controls or a 10X solution of test compounds in 10% DMSO in treatment media was added for a final compound concentration starting at 10 µM, and plates were incubated in 5% CO2 incubator at 37° C. for 5 days.
Subsequently viral load production was assayed by quantitative PCR (qPCR) of the HBV core sequence. PCR reaction mixture containing forward primers HBV-f 5′-CTGTGCCTTGGGTGGCTTT-3′ (IDT DNA), Reverse primers HBV-r 5′-[…]-3′ (IDT DNA), Fluorescent TaqMan^tm Probes HBV-probe 5′-FAM/AGCTCCAAA/ZEN/[…]/3IABkFQ-3′ (IDT DNA), 10 µL/well of PerfeCTa® qPCR ToughMix® (Quanta Biosciences, Cat#: 95114-05 K), and 6 µL/well of DEPC water (Alfa Aesar, cat#: J62087) was prepared. Four µL of supernatant was added to 16 µL of the reaction mixture in a qPCR plate (Applied Biosytems, Cat#: 4309849), sealed with a film (Applied Biosystems, Cat#: 4311971), centrifuged for a few seconds, and subsequently run on an Applied Biosystems VIIA7. The PCR mixture was incubated at 45° C. for 5 min, then 95° C. for 10 min, followed by 40 cycles of 10 seconds at 95° C. and 20 seconds at 60° C. Viral load was quantified against known HBV DNA standards by using ViiA™ 7 Software. Viral load in the supernatant from wells with treated cells were compared against viral load in supernatant from DMSO control wells (≥ 3 per plate). Cell viability assay was performed with CellTiter-Glo Luminescent Cell Viability Assay (Promega, cat#: G7573) with modification. Mixed appropriate amount of CellTiter-Glo (CTG) 1X DPBS in a 1:1 ratio, added 100 uL of the mixture to each well followed completely removal of all supernatant in each well without touching cell surface. Incubated the plate at room temperature for 10 min on an orbital shaker, and then read the plate with a plate reader (TECAN M1000 or Envision). EC50 or CC50 values were calculated through curve-fitting of the four-parameter nonlinear-logistic-regression model (GraphPad Prism or Dotmatics). CC50 values were all >10 µM.

[1] = Hepatitis B virus, HePAD38, 120 h, Table 1 ranges, read-out: Activity (viral load lowering EC50)
[2] = Table 1 ranges, read-out: Activity (viral load lowering EC50)

SMILES | EC50 [1] | further results
Cn1nc(C2CC3CC(O)(c4nn[nH]n4)CC3C2)c(C(=O)Nc2ccc(F)c(Cl)c2)c1N (stereo not shown) [Example 171] | > 500 nM | 
Cn1nc(C2CC3CC(CNC(=O)C4CCCC4)CC3C2)c(C(=O)Nc2ccc(F)c(Cl)c2)c1N (stereo not shown) [Example 47, 5-Amino-N-(3-chloro-4-fluorophenyl)-3-(5-(cyclopentanecarboxamidomethyl)octahydropentalen-2-yl)-1-methyl-1H-pyrazole-4-carboxamide] | < 10 nM | 
Cn1nc(C2CC3CC(CNC(=O)C(C)(C)O)CC3C2)c(C(=O)Nc2ccc(F)c(Cl)c2)c1N (single isomer, unassigned) [Example 44, 5-Amino-N-(3-chloro-4-fluorophenyl)-3-(5-((2-hydroxy-2-methylpropanamido)methyl)octahydropentalen-2-yl)-1-methyl-1H-pyrazole-4-carboxamide] |  | EC50 [2]: < 10 nM
Cn1nc(C2CC3CC3C2)c(C(=O)Nc2ccc(F)c(Cl)c2)c1N (stereo not shown) [Example 139, 5-Amino-3-(bicyclo[3.1.0]hexan-3-yl)-N-(3-chloro-4-fluorophenyl)-1-methyl-1H-pyrazole-4-carboxamide] |  | EC50 (Hepatitis B virus, HePAD38, 120 h, Table 2 ranges, read-out: VL HepAD38 EC50 range): < 100 nM
Cn1nc(C2CC3CC(O)(c4ccncc4)CC3C2)c(C(=O)Nc2ccc(F)c(Cl)c2)c1N (stereo not shown) [Example 16, 5-Amino-N-(3-chloro-4-fluorophenyl)-3-(5-hydroxy-5-(pyridin-4-yl)octahydropentalen-2-yl)-1-methyl-1H-pyrazole-4-carboxamide] | < 10 nM | 
Cc1cnc(C2(O)CC3CC(c4nn(C)c(N)c4C(=O)Nc4ccc(F)c(Cl)c4)CC3C2)o1 (stereo not shown) [Example 184] | < 10 nM | 
CNC(=O)NCC1CC2CC(c3nn(C)c(N)c3C(=O)Nc3ccc(F)c(Cl)c3)CC2C1 (stereo not shown) [Example 49, 5-Amino-N-(3-chloro-4-fluorophenyl)-1-methyl-3-(5-((3-methylureido)methyl)octahydropentalen-2-yl)-1H-pyrazole-4-carboxamide] | < 10 nM | 
Cn1nc(C2CC3CC(O)(c4nc(C(F)(F)F)cs4)CC3C2)c(C(=O)Nc2ccc(F)c(Cl)c2)c1N (stereo not shown) [Example 149] | 10 to 50 nM | 
Cn1nc(C2CC3CN(c4cnc(C(F)(F)F)cn4)CC3C2)c(C(=O)Nc2ccc(F)c(Cl)c2)c1N (stereo not shown) [Example 135, 5-Amino-N-(3-chloro-4-fluorophenyl)-1-methyl-3-(2-(5-(trifluoromethyl)pyrazin-2-yl)octahydrocyclopenta[c]pyrrol-5-yl)-1H-pyrazole-4-carboxamide] | 50 to 500 nM | 
Cn1nc(C2CC3CC(O)(c4c(Br)nnn4C)CC3C2)c(C(=O)Nc2ccc(F)c(Cl)c2)c1N (stereo not shown) [Example 24, 5-Amino-3-(5-(4-bromo-1-methyl-1H-1,2,3-triazol-5-yl)-5-hydroxyoctahydropentalen-2-yl)-N-(3-chloro-4-fluorophenyl)-1-methyl-1H-pyrazole-4-carboxamide] | < 10 nM | 
Cn1nc(C2CC3CC(O)(c4c[nH]nn4)CC3C2)c(C(=O)Nc2ccc(F)c(Cl)c2)c1N (stereo not shown) [Example 170] | < 10 nM | 
Cn1nc(C2CC3CC4(CC3C2)NC(=O)NC4=O)c(C(=O)Nc2ccc(F)c(Cl)c2)c1N (stereo not shown) [Example 116, 5-Amino-N-(3-chloro-4-fluorophenyl)-3-(2,5-dioxohexahydro-1′H-spiro[imidazolidine-4,2′-pentalen]-5′-yl)-1-methyl-1H-pyrazole-4-carboxamide] | 50 to 500 nM | 
Cn1nc(C2CC3CN(c4c(Cl)cncc4Cl)CC3C2)c(C(=O)Nc2ccc(F)c(Cl)c2)c1N (stereo not shown) [Example 136, 5-Amino-N-(3-chloro-4-fluorophenyl)-3-(2-(3,5-dichloropyridin-4-yl)octahydrocyclopenta[c]pyrrol-5-yl)-1-methyl-1H-pyrazole-4-carboxamide] | 50 to 500 nM | 
Cn1nc(C2CC3CN(c4c(F)cncc4F)CC3C2)c(C(=O)Nc2ccc(F)c(Cl)c2)c1N (stereo not shown) [Example 124, 5-Amino-N-(3-chloro-4-fluorophenyl)-3-(2-(3,5-difluoropyridin-4-yl)octahydrocyclopenta[c]pyrrol-5-yl)-1-methyl-1H-pyrazole-4-carboxamide] | 10 to 50 nM | 
Cn1nc(C2CC3CC(CNC(=O)C4CCC4)CC3C2)c(C(=O)Nc2ccc(F)c(Cl)c2)c1N (stereo not shown) [Example 46, 5-Amino-N-(3-chloro-4-fluorophenyl)-3-(5-(cyclobutanecarboxamidomethyl)octahydropentalen-2-yl)-1-methyl-1H-pyrazole-4-carboxamide] | < 10 nM | 
Cn1nc(C2CC3CC(O)(c4c(Cl)cnn4C)CC3C2)c(C(=O)Nc2ccc(F)c(Cl)c2)c1N (stereo not shown) [Example 208] | < 10 nM | 
Cn1nc(C2CC3CC(O)(c4ccccn4)CC3C2)c(C(=O)Nc2ccc(F)c(Cl)c2)c1N (stereo not shown) [Example 14, 5-Amino-N-(3-chloro-4-fluorophenyl)-3-(5-hydroxy-5-(pyridin-2-yl)octahydropentalen-2-yl)-1-methyl-1H-pyrazole-4-carboxamide] | < 10 nM | 
CCn1nc(N)cc1C1(O)CC2CC(c3nn(C)c(N)c3C(=O)Nc3ccc(F)c(Cl)c3)CC2C1 (stereo not shown) [Example 210] | < 10 nM | 
C[C@@H](NC(=O)C1CC2CC(c3nn(C)c(N)c3C(=O)Nc3ccc(F)c(Cl)c3)CC2C1)C(F)(F)F (single isomer, unassigned) [Example 101] | 10 to 50 nM | 
CCCS(=O)(=O)NCC1CC2CC(c3nn(C)c(N)c3C(=O)Nc3ccc(F)c(Cl)c3)CC2C1 (stereo not shown) [Example 89, 5-Amino-N-(3-chloro-4-fluorophenyl)-1-methyl-3-(5-(propylsulfonamidomethyl)octahydropentalen-2-yl)-1H-pyrazole-4-carboxamide] | < 10 nM | 
Cn1nc(C2CC3CC(CNC(=O)COCCOCCN)CC3C2)c(C(=O)Nc2ccc(F)c(Cl)c2)c1N (stereo not shown) [Example 82, 5-Amino-3-(5-((2-(2-(2-aminoethoxy)ethoxy)acetamido)methyl)octahydropentalen-2-yl)-N-(3-chloro-4-fluorophenyl)-1-methyl-1H-pyrazole-4-carboxamide] | 50 to 500 nM | 
Cn1nc(C2CC3CC(c4ccccc4)C(O)C3C2)c(C(=O)Nc2ccc(F)c(Cl)c2)c1N (single isomer, unassigned) [Example 143, 5-Amino-N-(3-chloro-4-fluorophenyl)-3-(4-hydroxy-5-phenyloctahydropentalen-2-yl)-1-methyl-1H-pyrazole-4-carboxamide] |  | EC50 (Table 2 ranges, read-out: VL HepAD38 EC50 range): < 100 nM
Cn1nc(C2CC3CC(CNC(=O)CCCCCNC(=O)OC(C)(C)C)CC3C2)c(C(=O)Nc2ccc(F)c(Cl)c2)c1N (stereo not shown) [Example 73, tert-Butyl (6-(((5-(5-amino-4-((3-chloro-4-fluorophenyl)carbamoyl)-1-methyl-1H-pyrazol-3-yl)octahydropentalen-2-yl)methyl)amino)-6-oxohexyl)carbamate] | 10 to 50 nM | 
CC(NC(=O)N1CC2CC(c3nn(C)c(N)c3C(=O)Nc3ccc(F)c(Cl)c3)CC2C1)C(F)(F)F (single isomer, unassigned) [Example 129, 5-(5-Amino-4-((3-chloro-4-fluorophenyl)carbamoyl)-1-methyl-1H-pyrazol-3-yl)-N-(1,1,1-trifluoropropan-2-yl)hexahydrocyclopenta[c]pyrrole-2(1H)-carboxamide] |  | EC50 [2]: 50 to 500 nM
Cn1nc(C2CC3CC(CNC(=O)C4CCNC(=O)C4)CC3C2)c(C(=O)Nc2ccc(F)c(Cl)c2)c1N (stereo not shown) [Example 80, N-((5-(5-Amino-4-((3-chloro-4-fluorophenyl)carbamoyl)-1-methyl-1H-pyrazol-3-yl)octahydropentalen-2-yl)methyl)-2-oxopiperidine-4-carboxamide] | 50 to 500 nM | 
